The text below walks through data of patent US10300144B2, “N-terminal polysialylation” (Lipoxen Technologies Limited, priority 2006, dated 2019).

One data set has as its system blood glucose. The data set can be described thus: In vivo efficacy of insulin formulations (blood glucose after subcutaneous injection). To be noted: for T-Test probability level of the difference against the Tris buffer, in vivo efficiency: mice. Also on record: species or system mice. On the procedure:
The in vivo efficacy of insulin formulations was studied in female mice CD-1, 7-8 weeks old, 0.3 IU of protein dose (same activity) was injected in mice subcutaneously. Animals were divided into seven groups of four. insulin formulations were given to each animal of each group in the following manner; insulin (0.3 IU/mouse), Lantus (Aventis) insulin-PSA conjugate (14 KDa), PBS, one drop of blood was taken from each animal and was measured blood glucose by ACCU-CHEK Active (Roche Diagnostics).

Data set [1] is described as follows: Isoelectric focusing (IEF) gel. The data set is classed as physicochemical. The following applies: IEF gel pH 3-10. The method, then:
Novex® IEF gel was used to determine differences in insulin and CAO-insulin conjugate isoelectric points. Samples was dissolved to a concentration of 0.5 mg/ml. 5 ul sample was diluted with 5 ul Novex IEF Sample Buffer pH 3-10 and then loaded the protein sample on the gel.

In the next data set the test system is liver enzymes. The following applies: cited from earlier work.
For data set [2] the following is noted: cyanuric chloride activated PEG (2000 Da) conjugates; cited from earlier work.
In another data set the test system is blood sugar levels. The following applies: rabbits, calculated on a molar basis; cited from earlier work.
Data set [3] is described as follows: Colominic acid (CAO) stability at different pH. The format is physicochemical. On the procedure: Colominic acid samples (CA and CAO) were dissolved in NaNO3 (0.2M), CH3CN (10%; 5 mg/ml) and were chromatographed on over 2× GMPWXL columns with detection by refractive index (GPC system: VE1121 GPC solvent pump, VE3580 RI detector and collation with Trisec 3 software (Viscotek Europe Ltd). Samples (5 mg/ml) were filtered over 0.45 μm nylon membrane and run at […] with 0.2M NaNO3 and CH3CN (10%) as the mobile phase.
The rules for chemistry of the PEGylation cannot be applied to polysialylation as such because of the difference in the physiochemical properties of these molecules. PSA is an acid labile polymer and is stable for weeks around neutral pH (FIG. 3). […] Polysialic acid is highly hydrophilic whereas PEG is an ampiphilic molecule in nature. When the polysialylation is carried out using conditions used for PEGylation, aggregation and precipitation of the proteins is seen in many cases.

Turning to “13 kDa CAO-insulin: N-terminal conjugate of insulin with 13 kDa oxidised colominic acid (polysialic acid)”, the “T-Test probability level of the difference against the Tris buffer, in vivo efficiency” value in the data set with blood glucose (time 32.0 minutes) is given as “** (** P < 0.01)”; in the data set with blood glucose (time 64.5 minutes), “*** (*** P < 0.001)”; in the data set on blood glucose (time 99.4 minutes), “*** (*** P < 0.001)”. The “isoelectric point (pI)” value in data set [1] is recorded as “no fixed isoelectric point”.

Turning to “15 KDa CAO-insulin (Sigma): conjugate of insulin with 15 kDa oxidised colominic acid”, in the data set on blood glucose (conjugation pH 6.0 versus 7.4), the “pH effect (of polysialylation) on in vivo efficiency” value is recorded as “pH 6.0 is better than 7.4”. The “probability level of the difference against the PBS buffer” value is on record as “** (**P < 0.01)” in the data set on blood glucose (time 30 (unit not given)); “*** (***P < 0.001)” with blood glucose (time 60 (unit not given)); “*** (***P < 0.001)” in the data set on blood glucose (time 90 (unit not given)); “** (**P < 0.01)” with blood glucose (time 120 (unit not given)); “* (*P < 0.05)” in the data set on blood glucose (time 150 (unit not given)).

On to “21 kDa CAO-insulin: conjugate of insulin with 21 kDa oxidised colominic acid”, for which the “T-Test probability level of the difference against the Tris buffer, in vivo efficiency” value in the data set on blood glucose (time 64.5 minutes) is reported as “*** (*** P < 0.001)”; with blood glucose (time 99.4 minutes) it was “*** (*** P < 0.001)”; with blood glucose (time 230.2 minutes), “* (* P < 0.05)”.

For the substance “21.5 kd CAO-insulin: conjugate of insulin with 21.5 kDa oxidised colominic acid (FIG. 9)”, the “effect on decreasing blood glucose in mice” value in the data set with blood glucose (among conjugates of FIG. 9 (10, 15, 21.5 kDa), PBS control) is “most significant effect on the decreasing blood glucose in mice”.

As for “27 kDa CAO-insulin: conjugate of insulin with 27 kDa oxidised colominic acid”, the “T-Test probability level of the difference against the Tris buffer, in vivo efficiency” value in the data set on blood glucose (time 32.0 minutes) is on record as “** (** P < 0.01)”; with blood glucose (time 64.5 minutes) it was “*** (*** P < 0.001)”; with blood glucose (time 99.4 minutes), “** (** P < 0.01)”; in the data set with blood glucose (time 230.2 minutes) it was “** (** P < 0.01)”; with blood glucose (time 1354.9 minutes), “** (** P < 0.01)”. Moreover, in data set [1], the “isoelectric point (pI)” value is reported as “no fixed isoelectric point”.

Take “32 kDa CAO-insulin: conjugate of insulin with 32 kDa oxidised colominic acid”: the “T-Test probability level of the difference against the Tris buffer, in vivo efficiency” value with blood glucose (time 32.0 minutes) was “*** (*** P < 0.001)”; in the data set with blood glucose (time 64.5 minutes), “*** (*** P < 0.001)”; with blood glucose (time 99.4 minutes), “*** (*** P < 0.001)”; in the data set with blood glucose (time 1354.9 minutes) it was “* (* P < 0.05)”.

On to “PEG(1500)-B1-insulin: Geiger et al./Ehrat et al. PEG-insulin adduct modified at residue PheB1”, for which the “stability to liver enzymes versus native insulin” value in the data set on liver enzymes is recorded as “far more stable”.

Turning to “PEG-insulin conjugates: Davis et al. conjugates of insulin with cyanuric chloride activated PEG (2000 Da)”, the “activity (partially active)” value in data set [2] is listed as “about 50%”.

Turning to insulin [reference compound], the “T-Test probability level of the difference against the Tris buffer, in vivo efficiency” value in the data set with blood glucose (time 32.0 minutes), in the data set on blood glucose (time 64.5 minutes) and with blood glucose (time 99.4 minutes) was “*** (*** P < 0.001)” throughout.

As to “mPEG(1500)-B1-insulin: Obermeier et al. site-specific PEG-insulin conjugate modified at residue PheB1”, the “insulin effect on reduction of blood sugar levels” value in the data set with blood sugar levels was 100%.

Take oxidised colominic acid [CAO]: the “slow degradation, % of initial MW” value in data set [3] (pH 4.0, after 48 hours) was 70 % of initial MW; in data set [3] (pH 5.0, after 48 hours), 92 % of initial MW. Moreover, the “stability of CAO” value in data set [3] (pH 6.0) and in data set [3] (pH 7.4) was “stable for 8 days” each time.
